From EP1510220B1 (priority 1993, dated 1994)

Tests used:
[1] = system: mink lung endothelial (MvLu) cells; test: DNA synthesis of MvLu cells, direct addition of agent; format: cell-based; conditions: 50 micromolar in fresh DMEM + 10% FCS
Protocol: Assays for TGF-Beta. The TGF-beta activity present in medium conditioned on various cells was determined by DNA synthesis assay on mink lung […] (MvLu) cells; a modification of the assay described in Danielpour et al., J. Cell. Physiol., 138: 79-83, 1989. MvLu cells were subcultured at 1:5 dilution in DMEM + 10% FCS. After 24 hours, the medium was replaced with the conditioned medium to be tested in the absence or presence of the neutralizing antiserum to TGF-beta at 10 micrograms/ml. DNA synthesis during a 1 hour pulse of [^3H]-thymidine (5 microcuries/ml) was determined 23 hours after addition of the test medium. TGF-beta activity was calculated as the proportion of the inhibition of DNA synthesis which was reversed in the presence of neutralizing antibody, using a standard curve to convert the inhibition values into quantities of TGF-beta. The TGF-beta1 standards and conditioned media both contained 10% FCS in DMEM.

[2] = Proliferation of enzyme-dispersed (ED) human VSMC cultures; format: cell-based; conditions: human, aortic vsmc ed cultures, cell counting, read-out: concentrations that caused cell death
Protocol: (§1) Human aortic VSMC cultures. Adult human VSMC were obtained from 6 transplant donors (either sex, age range from 3 to 54 years) using the enzyme dispersal or explant technique. In one case, the same donor (a person) was used to establish both an enzyme-dispersed (ED) and explant-derived (EX) cell culture. Prior to enzyme-dispersion or explanting treatment, human aortas were obtained within 18 h of death. The endothelium layer was removed with a scalpel blade and strips of smooth muscle cells (tunica media) were removed with forceps and chopped into small pieces (1 mm^3).
(§2) ED Cultures. The aortic pieces were washed once with serum-free Hanks Balanced Salt Solution, then enzyme-dispersed with collagenase and elastase, as described in Example 7. The cells were plated at an initial density of 1.5 x 10^5 cells/cm^2 and incubated in a humidified atmosphere at 37°C in 5% CO2 in air. The cells were subcultured every 6-7 days (at stationary phase) by releasing them with trypsin/EDTA and diluting them 1:1.5 in D-MEM + 10% FCS. Subcultured ED cells were cultured with D-MEM + 20% FCS 24 h after plating, and thereafter at 48 h intervals.
(§3) Cell counting, DNA synthesis assays and assays for total and active TGF-beta were performed as described in Example 7.

[3] = system: human ED cultures; test: as above; format: cell-based; conditions: 96 h, cell counting
Protocol: as §1, §2, §3

[4] = system: TGF-beta1 mRNA; test: cells; conditions: Rattus norvegicus, 24 h, read-out: increase of TGF-beta1 mRNA
[5] = system: B054 cells (baboon smooth muscle cells); test: cells; format: cell-based
[6] = system: Vascular smooth muscle cells (BO54); test: Scratch-migration assay with morphological toxicity grading; format: cell-based, baboon; set-up: key: - = no toxicity; +1 = minimal; +2 = mild; +3 = moderate; +4 = marked toxicity
Protocol: Scratch assays to determine the extent of smooth muscle cell migration inhibition by cytochalasin B were performed in accordance with the following protocol:
Vascular smooth muscle cells (BO54) were derived from explants of baboon aortic smooth muscle, as described in Example 1. The cells were grown in flat bottom, six well tissue culture plates, which hold about 5 ml of medium. The vascular smooth muscle cells were plated at 200,000 cells/well and placed at 37°C in a humidified 5% CO2 incubator for 18 hours. The wells were then scratched with a sterile portion of a single edge razor blade that was held by clamp or pliers and was brought aseptically into contact with the bottom of the well at a 90° angle. The cells from a small area along the scratch were removed by a sterile cotton tipped applicator while the blade was in contact with the bottom of the well. After incubation, the presence of cells in the "scratched" area is indicative of cell migration across the scratch line.
Briefly, a stock solution of cytochalasin B (Sigma Chemical Co.) in dimethyl sulfoxide (DMSO) at 1 mg/ml was prepared. Test dilutions of cytochalasin B or control medium were added. Each experiment included two sets of plates: • A set: Test agent exposure for 1, 3, 6, 8 and 10 days only; and • B set: Test agent exposure for 1, 3, 6, 8 and 10 days, followed by a seven day recovery time with control medium. Both sets of plates were fixed (10% formalin in PBS) and stained (0.02% crystal violet) at the end of the timed exposures. Test concentrations for cytochalasin B were 1, 0.1 and 0.01 µg/ml, and a negative medium control was included. Fresh medium and drug were supplied 3 times per week.
In this Table, "M" indicates Migration Grade, wherein - = no migration; +1 = minimal; +2 = mild; +3 = moderate; and +4 = marked (maximum density; limit of cell contact inhibition) migration of vascular smooth muscle cells into the cleared area adjacent to the scratch. In this Table, "T" denotes a morphological Toxicity Grade, wherein - = no toxicity; +1 = minimal; +2 = mild; +3 = moderate; and +4 = marked toxicity. The migration results are expressed as "Grade in the Cleared Area of the Well / Grade in an Undisturbed Region of the Well." The toxicity values represent a grade for all cells in each well.

## CC/C(=C(\c1ccccc1)c1ccc(OCCN(C)C)cc1)c1ccccc1 [tamoxifen, trans-2-[4-(1,2-diphenyl-1-butenyl)phenoxy]-N,N-dimethylethylamine]
[1]
  effect on DNA synthesis of MvLu cells: no effect on DNA synthesis
[2]
  MCC at 96 h: > 33 µM
[3]
  concentrations that did not affect the rate of proliferation: below 10 µM
[4]
  fold induction at 10 µM: ~10

## cytochalasin B
[5]; 5 minute exposure
  minimum effective dose (MED), protein synthesis assay: 10 µg/mL
[5]; 24 hour exposure
  minimum effective dose (MED), protein synthesis assay: 1.0 µg/mL
[6]; 7-day Recovery Post Exposure, 0.01 µg/mL, Day 1
  morphological Toxicity Grade: -
[6]; 7-day Recovery Post Exposure, 0.01 µg/mL, Day 3
  morphological Toxicity Grade: -
[6]; 7-day Recovery Post Exposure, 0.01 µg/mL, Day 6
  morphological Toxicity Grade: -
[6]; 7-day Recovery Post Exposure, 0.01 µg/mL, Day 8
  morphological Toxicity Grade: -
[6]; 7-day Recovery Post Exposure, 0.01 µg/mL, Day 10
  morphological Toxicity Grade: -
[6]; 7-day Recovery Post Exposure, 0.1 µg/mL, Day 1
  morphological Toxicity Grade: -
[6]; 7-day Recovery Post Exposure, 0.1 µg/mL, Day 3
  morphological Toxicity Grade: -
[6]; 7-day Recovery Post Exposure, 0.1 µg/mL, Day 6
  morphological Toxicity Grade: -
[6]; 7-day Recovery Post Exposure, 0.1 µg/mL, Day 8
  morphological Toxicity Grade: -
[6]; 7-day Recovery Post Exposure, 0.1 µg/mL, Day 10
  morphological Toxicity Grade: -
[6]; Continuous Exposure, 0.01 µg/mL, Day 1
  morphological Toxicity Grade: -
[6]; Continuous Exposure, 0.01 µg/mL, Day 3
  morphological Toxicity Grade: -
[6]; Continuous Exposure, 0.01 µg/mL, Day 6
  morphological Toxicity Grade: -
[6]; Continuous Exposure, 0.01 µg/mL, Day 8
  morphological Toxicity Grade: -
[6]; Continuous Exposure, 0.01 µg/mL, Day 10
  morphological Toxicity Grade: -
[6]; Continuous Exposure, 0.1 µg/mL, Day 1
  morphological Toxicity Grade: -
[6]; Continuous Exposure, 1.0 µg/mL, Day 6
  morphological Toxicity Grade: +4
[6]; Continuous Exposure, 1.0 µg/mL, Day 8
  morphological Toxicity Grade: +4
[6]; Continuous Exposure, 1.0 µg/mL, Day 10
  morphological Toxicity Grade: +4
